The text below walks through data of ChEMBL document CHEMBL4406826, “Discovery of δ-sultone-fused pyrazoles for treating Alzheimer's disease: Design, synthesis, biological evaluation and SAR studies” (Eur J Med Chem, 2019).

Data set [1] concerns the target T1, Cholinesterase (Equus caballus, UniProt P81908). The experiment in a line: Inhibition of equine serum BuChE using butyrylthiocholine iodide as substrate preincubated with enzyme for 20 mins followed by substrate addition by Ellman's method. For orientation: Ellman's reagent forms a yellow product with free thiols.
A short description of data set [2]: Octanol-PBS buffer partition coefficient, log P of the compound incubated for 24 hrs measured at pH 7.4 by shake-flask method. The class given is physicochemical.
Data set [3] has as its target Acetylcholinesterase (Electrophorus electricus) (UniProt O42275). The experiment in a line: Inhibition of electric eel AChE at 20 uM using acetylthiocholine iodide as substrate preincubated with enzyme for 20 mins followed by substrate addition by Ellman's method relative to control.
Data set [4] concerns the target Acetylcholinesterase (Electrophorus electricus, UniProt O42275). The experiment in a line: Inhibition of electric eel AChE using acetylthiocholine iodide as substrate preincubated with enzyme for 20 mins followed by substrate addition by Ellman's method.
The subject of data set [5] is PC-12. The experiment in a line: Neuroprotective activity against H2O2-induced cytotoxicity in rat PC12 cells assessed as increase in cell viability at 10 to 25 uM pretreated for 3 hrs followed by H2O2 stimulation in continuous presence of compound for 24 hrs by MTT assay relative to control. The class given is functional. (Tetrazolium dyes change colour on reduction, which living cells bring about.)

The target of data set [6] is T1, Cholinesterase. The experiment in a line: Inhibition of equine serum BChE using varying levels of butyrylthiocholine iodide as substrate by Line weaver Burk reciprocal plot analysis.
Data set [7] addresses Cholinesterase (Equus caballus) (UniProt P81908). The experiment in a line: Mixed inhibition of equine serum BChE assessed as increase in substrate Km at 0.5 to 2 uM using varying levels of butyrylthiocholine iodide as substrate by Line weaver Burk reciprocal plot analysis.
Data set [8] shares this target. The experiment in a line: Reversible inhibition of equine serum BChE at 0.4 to 1 uM using varying levels of butyrylcholine iodide as substrate.
Data set [9] has the same target. The experiment in a line: Mixed inhibition of equine serum BChE assessed as decrease in Vmax at 0.5 to 2 uM using varying levels of butyrylthiocholine iodide as substrate by Line weaver Burk reciprocal plot analysis.
Data set [10] in a line: Cytotoxicity against human HepG2 cells assessed as cell viability at 5 to 50 uM measured after 24 hrs by MTT assay. The data set is classed as cell-based. As to conditions: read-out: Activity.
Data set [11] in a line: Cytotoxicity against rat PC12 cells assessed as cell viability at 5 to 50 uM measured after 24 hrs by MTT assay. As to conditions: read-out: Activity. The class given is cell-based, PC-12.
For data set [12], the target named is Cholinesterase (Equus caballus) (UniProt P81908). The experiment in a line: Mixed inhibition of equine serum BChE assessed as increase in substrate Km at 1 to 5 uM using varying levels of butyrylthiocholine iodide as substrate by Line weaver Burk reciprocal plot analysis.
Chain of Cholinesterase (Equus caballus) (P81908 whole entry): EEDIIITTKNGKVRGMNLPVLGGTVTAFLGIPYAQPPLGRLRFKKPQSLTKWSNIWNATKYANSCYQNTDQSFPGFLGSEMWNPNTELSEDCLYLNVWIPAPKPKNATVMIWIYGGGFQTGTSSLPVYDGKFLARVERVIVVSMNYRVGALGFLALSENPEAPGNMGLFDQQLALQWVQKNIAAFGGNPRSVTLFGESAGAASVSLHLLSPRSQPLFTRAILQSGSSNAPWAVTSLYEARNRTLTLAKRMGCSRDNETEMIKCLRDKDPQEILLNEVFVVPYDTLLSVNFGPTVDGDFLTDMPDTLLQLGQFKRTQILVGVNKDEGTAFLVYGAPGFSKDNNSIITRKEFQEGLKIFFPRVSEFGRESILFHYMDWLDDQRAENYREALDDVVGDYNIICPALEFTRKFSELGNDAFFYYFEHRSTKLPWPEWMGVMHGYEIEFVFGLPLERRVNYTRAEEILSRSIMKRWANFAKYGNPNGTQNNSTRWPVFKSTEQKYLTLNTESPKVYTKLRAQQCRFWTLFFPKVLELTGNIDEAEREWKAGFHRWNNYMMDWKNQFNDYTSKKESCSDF
Data set [13] has the same target. The experiment in a line: Non-competitive inhibition of equine serum BChE at 1 to 5 uM using varying levels of butyrylcholine iodide as substrate by Line weaver Burk reciprocal plot analysis.
For data set [14] the target is unchanged. The experiment in a line: Mixed inhibition of equine serum BChE assessed as decrease in Vmax at 1 to 5 uM using varying levels of butyrylthiocholine iodide as substrate by Line weaver Burk reciprocal plot analysis.

A word on the IC50: it is the midpoint of a concentration-inhibition curve. Usually logD stands for the decadic logarithm of the distribution of all forms, ionised or not, between an organic phase and buffer at a given pH. Lower therefore signals lower lipophilicity. Broadly, the Ki is the equilibrium dissociation constant of an inhibitor or competing ligand from its target.

Active and inactive are the calls of the source.

T1 sequence (P81908 whole entry): as above
Chain of Acetylcholinesterase (Electrophorus electricus) (O42275 24-633 limits assumed): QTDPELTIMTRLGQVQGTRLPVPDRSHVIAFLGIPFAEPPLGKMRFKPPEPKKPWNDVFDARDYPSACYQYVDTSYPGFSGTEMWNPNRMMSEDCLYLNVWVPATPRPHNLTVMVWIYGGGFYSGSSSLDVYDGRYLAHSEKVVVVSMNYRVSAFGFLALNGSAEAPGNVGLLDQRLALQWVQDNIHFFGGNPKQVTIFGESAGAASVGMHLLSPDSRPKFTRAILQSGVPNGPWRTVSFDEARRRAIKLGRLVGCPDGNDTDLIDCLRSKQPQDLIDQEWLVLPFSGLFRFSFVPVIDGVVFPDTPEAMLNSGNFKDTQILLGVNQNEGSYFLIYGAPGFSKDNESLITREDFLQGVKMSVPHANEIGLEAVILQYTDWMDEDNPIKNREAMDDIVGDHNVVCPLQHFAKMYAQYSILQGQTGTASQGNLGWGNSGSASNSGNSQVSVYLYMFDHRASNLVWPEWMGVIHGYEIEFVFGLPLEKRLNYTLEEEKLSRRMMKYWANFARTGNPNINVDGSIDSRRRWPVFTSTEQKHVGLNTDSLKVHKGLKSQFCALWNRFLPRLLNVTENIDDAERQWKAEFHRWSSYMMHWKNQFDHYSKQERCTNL
Chain of Acetylcholinesterase (O42275 whole entry): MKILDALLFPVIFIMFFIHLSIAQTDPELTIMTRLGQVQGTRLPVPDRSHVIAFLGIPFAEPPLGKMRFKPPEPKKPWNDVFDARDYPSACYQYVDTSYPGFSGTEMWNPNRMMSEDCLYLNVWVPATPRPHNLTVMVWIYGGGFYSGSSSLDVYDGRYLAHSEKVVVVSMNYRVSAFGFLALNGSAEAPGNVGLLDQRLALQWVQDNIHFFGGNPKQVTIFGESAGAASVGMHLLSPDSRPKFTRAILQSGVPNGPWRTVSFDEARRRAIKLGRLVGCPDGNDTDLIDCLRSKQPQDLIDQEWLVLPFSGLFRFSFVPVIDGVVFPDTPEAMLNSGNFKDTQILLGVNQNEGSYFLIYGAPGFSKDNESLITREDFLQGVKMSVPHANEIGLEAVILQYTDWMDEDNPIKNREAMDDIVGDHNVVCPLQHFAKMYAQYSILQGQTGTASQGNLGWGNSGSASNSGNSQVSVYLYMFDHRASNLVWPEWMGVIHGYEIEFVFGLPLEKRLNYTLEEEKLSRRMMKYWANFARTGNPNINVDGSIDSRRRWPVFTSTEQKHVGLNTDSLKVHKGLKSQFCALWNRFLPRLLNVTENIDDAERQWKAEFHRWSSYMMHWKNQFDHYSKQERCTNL

In turn, `Cc1nn(-c2ccccc2F)c2c1CCS(=O)(=O)O2` showed an IC50 in data set [1] of 1.8 µM. The compound further returned a logD at 24 h in [2] of 1.86. Further, the inhibition entry in [3] was “inactive”.

As to `O=S1(=O)CC(c2cccc(C(F)(F)F)c2)c2c(C3CC3)nn(-c3cccc(F)c3)c2O1` (stereo not drawn), in [1], the IC50 came to 4.62 µM. In [2], this compound registered a logD at 24 h of 2.73. In data set [3], the inhibition entry was “inactive”.

The compound `Cc1nn(-c2ccccc2F)c2c1C(c1ccc(F)cc1)CS(=O)(=O)O2` (stereo not drawn) showed a half-maximal inhibitory concentration (IC50) in data set [1] of 6.1 µM. The logD at 24 h in data set [2] came out at 2.13. Moreover, the inhibition entry in data set [3] was “inactive”.

`Cc1nn(-c2ccccc2)c2c1C(/C=C/c1cccc(C#N)c1)CS(=O)(=O)O2` (stereo not drawn): the values for the IC50 in [1] and in [4] were 10.6 µM and 16.3 µM, respectively.

In [1], `O=S1(=O)CC(c2ccc(F)cc2)c2c(C3CC3)nn(-c3ccccc3F)c2O1` (stereo not drawn) yielded an IC50 of 7.76 µM. The compound further came in with a logD at 24 h in data set [2] of 1.76. The inhibition result in data set [3] was “inactive”.

Regarding `O=S1(=O)CC(c2ccc(F)cc2)c2c(C3CC3)nn(-c3ccccc3Cl)c2O1` (stereo not drawn), the IC50 in data set [1] turned out to be 6.02 µM. In data set [2], this compound yielded a logD at 24 h of 2.04. Also, the inhibition entry in data set [3] is “inactive”.

In the case of `COc1ccc(-c2nn(-c3ccccc3F)c3c2C(c2ccc(Br)c(C)c2)CS(=O)(=O)O3)cc1` (stereo not drawn), in [1], the concentration for half-maximal inhibition (IC50) turned out to be 4.33 µM. The logD at 24 h in data set [2] is 2.91. In [3], the inhibition result is “inactive”.

In data set [1], `Cc1cc(C2CS(=O)(=O)Oc3c2c(C)nn3-c2ccccc2F)ccc1Br` (stereo not drawn) registered an IC50 of 3.83 µM. Also, the logD at 24 h in data set [2] came to 2.26. Moreover, the inhibition entry in data set [3] was “inactive”.

Consider `O=S1(=O)CC(c2cccc(F)c2)c2c(C3CC3)nn(-c3ccccc3F)c2O1` (stereo not drawn), for which the midpoint of inhibition in data set [1], the IC50, lay at 4.01 µM. For the same compound, in data set [2], the logD at 24 h was determined as 2.86. Besides, the inhibition result in [3] is “inactive”.

Regarding `COc1ccc(-c2nn(-c3ccccc3F)c3c2CCS(=O)(=O)O3)cc1`, the IC50 in [1] is 0.46 µM. For the same compound, the Activity in [5] is above 70%. Moreover, in [6], the Ki amounted to 0.145 µM. Also, the inhibition entry in data set [7], in data set [8] and in [9] was “Active” throughout. The viability at 24 h, 50 µM in [10] was above 90%. In addition, the logD at 24 h in data set [2] turned out to be 2.62. For the same compound, in [11], the viability at 24 h, up to 50 µM was above 90%. In data set [3], the inhibition entry was “inactive”.

As to `COc1ccc(-c2nn(-c3ccccc3Cl)c3c2CCS(=O)(=O)O3)cc1`, the inhibition result in [12], in data set [13] and in data set [14] was “Active” each time. This compound registered an IC50 in [1] of 0.42 µM. For the same compound, in data set [5], the Activity is given as above 70%. In [6], the affinity, expressed as Ki, was 0.06 µM. Further, in data set [10], the viability at 24 h, 50 µM is above 90%. In addition, the logD at 24 h in [2] turned out to be 3.04. Further, the viability at 24 h, up to 50 µM in data set [11] is above 90%. Also, the inhibition entry in [3] is “inactive”.

On to `O=S1(=O)CCc2c(C3CC3)nn(-c3ccccc3F)c2O1`, for which inhibition in [1] was half-maximal at 0.199 µM (IC50). Further, in data set [8], the inhibition entry is “Active”. This compound also came in with a logD at 24 h in data set [2] of 2.09. In addition, the inhibition entry in data set [3] is “inactive”.

`COc1cccc(C2CS(=O)(=O)Oc3c2c(C2CC2)nn3-c2ccccc2F)c1` (stereo not drawn) displayed an IC50 in data set [1] of 3.47 µM. This compound gave a logD at 24 h in data set [2] of 2.01. Moreover, in [3], the inhibition result is “inactive”.

Take `Cc1cc(C2CS(=O)(=O)Oc3c2c(C2CC2)nn3-c2ccccc2Cl)ccc1Br` (stereo not drawn): inhibition in data set [1] was half-maximal at 3.77 µM (IC50). Besides, in [2], the logD at 24 h was 2.53. Also, the inhibition entry in [3] is “inactive”.

Consider `Cc1cccc(C2CS(=O)(=O)Oc3c2c(C)nn3-c2ccccc2)c1` (stereo not drawn), for which, in [1], the IC50 amounted to 17.7 µM. For the same compound, the inhibition result in data set [3] is “inactive”.

With `COc1cccc(C2CS(=O)(=O)Oc3c2c(C2CC2)nn3-c2cccc(F)c2)c1` (stereo not drawn), the IC50 in data set [1] came out at 14.3 µM. For the same compound, in data set [3], the inhibition result was “inactive”.

In the case of `Cc1cc(C2CS(=O)(=O)Oc3c2c(C2CC2)nn3-c2ccccc2F)ccc1Br` (stereo not drawn), in [1], the IC50 turned out to be 5.71 µM. Besides, the logD at 24 h in data set [2] was 2.72. The inhibition entry in data set [3] was “inactive”.

As to `Cc1nn(-c2ccccc2)c2c1C(c1cccc(C(F)(F)F)c1)CS(=O)(=O)O2` (stereo not drawn), in data set [1], the IC50 worked out at 16.4 µM. Further, in data set [3], the inhibition result was “inactive”.

As to `Cc1ccc(C2CS(=O)(=O)Oc3c2c(C)nn3-c2ccccc2)cc1Br` (stereo not drawn), in [1], it took 18.3 µM to reach half-maximal inhibition (IC50). Further, the inhibition result in data set [3] is “inactive”.

Take `CC1=NN2C(=O)Oc3c(Cl)cc(Cl)cc3C2C1` (stereo not drawn): in data set [4], the IC50 is above 20 µM.
